In US9676714B2, “Sulfonylindole derivatives and method for preparing the same” (Daewoong Pharmaceutical Co., Ltd., priority 2013, dated 2017):
Counter-ions that a name gives are not always drawn.

The molecules below were run against T1, proton pump (H+/K+-ATPase) (Sus scrofa, UniProt P19156) (assay: Measurement of inhibitory effects on proton pump (H+/K+-ATPase) activities). Details: hog gastric vesicles, K+-specific H+/K+-ATPase activity, Tris-HCl buffer pH 7.4, 37° C. for 40 minutes, malachite green Pi readout.
T1 construct: Gastric vesicles were prepared from hog stomach via centrifugal separation; from tissue; host or cells: hog stomach (gastric vesicles, method of Rabon et al. 1988)
Assay type: biochemical
Summary of the method: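 Hog gastric vesicles in 60 mmol/l Tris-HCl pH 7.4 with 0.5% DMSO were treated with compounds at room temperature; reaction was started with 10 μl of 10 mmol/l ATP stock. Released Pi was read at 570 nm, K+-specific activity taken as the ±K+ difference. IC50 from 4-parameter logistic fit.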

T1 sequence (P19156 whole entry): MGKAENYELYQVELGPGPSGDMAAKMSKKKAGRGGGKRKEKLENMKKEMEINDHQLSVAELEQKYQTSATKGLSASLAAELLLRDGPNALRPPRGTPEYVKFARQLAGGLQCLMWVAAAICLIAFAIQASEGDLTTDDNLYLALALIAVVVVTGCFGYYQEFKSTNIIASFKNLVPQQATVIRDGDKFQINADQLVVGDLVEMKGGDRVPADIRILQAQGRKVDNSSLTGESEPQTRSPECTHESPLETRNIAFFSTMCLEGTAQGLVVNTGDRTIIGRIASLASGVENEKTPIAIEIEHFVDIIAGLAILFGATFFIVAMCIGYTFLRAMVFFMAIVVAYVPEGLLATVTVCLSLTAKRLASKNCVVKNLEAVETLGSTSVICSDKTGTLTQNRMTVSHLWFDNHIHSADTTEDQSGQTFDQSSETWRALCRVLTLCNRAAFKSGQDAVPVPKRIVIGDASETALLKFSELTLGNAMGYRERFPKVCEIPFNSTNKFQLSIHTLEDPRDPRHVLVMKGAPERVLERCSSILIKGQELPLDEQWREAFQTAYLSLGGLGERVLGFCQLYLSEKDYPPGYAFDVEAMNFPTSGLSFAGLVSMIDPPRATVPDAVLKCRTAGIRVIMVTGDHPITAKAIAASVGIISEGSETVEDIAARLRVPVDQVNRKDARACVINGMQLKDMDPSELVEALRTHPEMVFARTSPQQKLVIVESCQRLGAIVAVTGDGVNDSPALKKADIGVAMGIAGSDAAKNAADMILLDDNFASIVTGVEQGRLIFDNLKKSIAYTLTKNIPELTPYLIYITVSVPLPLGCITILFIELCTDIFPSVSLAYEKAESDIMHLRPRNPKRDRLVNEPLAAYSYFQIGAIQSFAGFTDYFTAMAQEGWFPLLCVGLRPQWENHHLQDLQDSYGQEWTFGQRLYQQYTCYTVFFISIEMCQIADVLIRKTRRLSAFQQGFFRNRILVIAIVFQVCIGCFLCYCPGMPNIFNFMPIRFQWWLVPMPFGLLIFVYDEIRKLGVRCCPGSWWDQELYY
T1 sequence (P18434 whole entry partner): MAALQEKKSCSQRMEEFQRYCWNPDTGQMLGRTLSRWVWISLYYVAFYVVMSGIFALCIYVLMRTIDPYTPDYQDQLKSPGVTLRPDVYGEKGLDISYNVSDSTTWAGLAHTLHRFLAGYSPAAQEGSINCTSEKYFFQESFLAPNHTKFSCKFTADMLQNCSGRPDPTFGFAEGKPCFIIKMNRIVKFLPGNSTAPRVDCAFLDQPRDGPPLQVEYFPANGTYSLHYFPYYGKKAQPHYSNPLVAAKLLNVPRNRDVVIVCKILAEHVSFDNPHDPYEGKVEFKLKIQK

For `CNCc1cn(S(=O)(=O)c2cccnc2)c2cc(Oc3ncc(F)cn3)ccc12` [Example 313, 1-(6-((5-fluoropyrimidin-2-yl)oxy)-1-(pyridin-3-ylsulfonyl)-1H-indol-3-yl)-N-methylmethanamine hydrochloride], which IC50 is on record?
The IC50 was 25000 nM.

Which IC50 does the source give for `CNCc1cn(S(=O)(=O)c2cccnc2)c2cc(Cc3ccc(C(F)(F)F)cc3Cl)ccc12` [Example 276, 1-(6-(2-chloro-4-(trifluoromethyl)benzyl)-1-(pyridin-3-ylsulfonyl)-1H-indol-3-yl)-N-methylmethanamine hydrochloride] here?
Its IC50 is 670 nM.

With `CNCc1cn(S(=O)(=O)c2cccnc2)c2cc(Nc3c(F)cnc(F)c3F)ccc12` [Example 134, 3-((methylamino)methyl)-1-(pyridin-3-ylsulfonyl)-N-(2,3,5-trifluoropyridin-4-yl)-1H-indol-6-amine hydrochloride] as the molecule, how does the IC50 read?
The IC50 was 2050 nM.

For `CNCc1cn(S(=O)(=O)c2cccc(OC)c2)c2cc(Nc3ccc(OC)nc3Cl)ccc12` [Example 173, N-(2-chloro-6-methoxypyridin-3-yl)-1-((3-methoxyphenyl)sulfonyl)-3-((methylamino)methyl)-1H-indol-6-amine hydrochloride], which IC50 is on record?
Its IC50 is 1190 nM.

`CNCc1cn(S(=O)(=O)c2cccnc2)c2cc(Nc3ccc(-c4cccc(OC)c4)cc3)ccc12` [Example 15, N-(3′-methoxy-[1,1′-biphenyl]-4-yl)-3-((methylamino)methyl)-1-(pyridin-3-ylsulfonyl)-1H-indol-6-amine hydrochloride] was tested. Which IC50 did it give?
The IC50 was 1850 nM.

How did the IC50 turn out when `CNCc1cn(S(=O)(=O)c2cccc(F)c2)c2cc(Cc3ccc(OC)nc3Cl)ccc12` [Example 292, 1-(6-((2-chloro-6-methoxypyridin-3-yl)methyl)-1-((3-fluorophenyl)sulfonyl)-1H-indol-3-yl)-N-methylmethanamine hydrochloride] was run?
The IC50 was 640 nM.

For `CNCc1cn(S(=O)(=O)c2cccnc2)c2cc(Nc3ccc(C)cc3)ccc12` [Example 10, 3-((methylamino)methyl)-1-(pyridin-3-ylsulfonyl)-N-(p-tolyl)-1H-indol-6-amine hydrochloride], which IC50 is on record?
The IC50 was 200 nM.

Which IC50 does the source give for `CNCc1cn(S(=O)(=O)c2cccc(OC(F)(F)F)c2)c2cc(Nc3ccc(OC(F)(F)F)cc3Cl)ccc12` [Example 201, N-(2-chloro-4-(trifluoromethoxy)phenyl)-3-((methylamino)methyl)-1-((3-(trifluoromethoxy)phenyl)sulfonyl)-1H-indol-6-amine hydrochloride] here?
The IC50 was 660 nM.

How did the IC50 turn out when `CNCc1cn(S(=O)(=O)c2cccnc2)c2cc(Oc3ncc(C(F)(F)F)cc3Cl)ccc12` [Example 312, 1-(6-((3-chloro-5-(trifluoromethyl)pyridin-2-yl)oxy)-1-(pyridin-3-ylsulfonyl)-1H-indol-3-yl)-N-methylmethanamine hydrochloride] was run?
Its IC50 is 660 nM.

`CNCc1cn(S(=O)(=O)c2cccc(OC)c2)c2cc(Nc3ccc(C)cc3Cl)ccc12` [Example 163, N-(2-chloro-4-methylphenyl)-1-((3-methoxyphenyl)sulfonyl)-3-((methylamino)methyl)-1H-indol-6-amine hydrochloride] was tested. Which IC50 did it give?
The IC50 was 140 nM.

`CNCc1cn(S(=O)(=O)c2cccnc2)c2cc(Nc3c(C)cc(Br)cc3C)ccc12` [Example 90, N-(4-bromo-2,6-dimethylphenyl)-3-((methylamino)methyl)-1-(pyridin-3-ylsulfonyl)-1H-indol-6-amine hydrochloride] was tested. Which IC50 did it give?
The IC50 was 710 nM.

`Cc1ccc(Nc2ccc3c(C(=O)N(C)C)cn(S(=O)(=O)c4cccnc4)c3c2)c(Cl)c1` [Example 323, 6-((2-chloro-4-methylphenyl)amino)-N,N-dimethyl-1-(pyridin-3-ylsulfonyl)-1H-indol-3-carboxamide] was tested. Which IC50 did it give?
The IC50 was 20000 nM.

For `CNCc1cn(S(=O)(=O)c2cccc(C(F)(F)F)c2)c2cc(Cc3ccc(OC)nc3Cl)ccc12` [Example 294, 1-(6-((2-chloro-6-methoxypyridin-3-yl)methyl)-1-((3-(trifluoromethyl)phenyl)sulfonyl)-1H-indol-3-yl)-N-methylmethanamine hydrochloride], which IC50 is on record?
The IC50 was 630 nM.

With `CNCc1cn(S(=O)(=O)c2cccc(OC(F)(F)F)c2)c2cc(Nc3ccc(C)cc3Cl)ccc12` [Example 196, N-(2-chloro-4-methylphenyl)-3-((methylamino)methyl)-1-((3-(trifluoromethoxy)phenyl)sulfonyl)-1H-indol-6-amine hydrochloride] as the molecule, how does the IC50 read?
The IC50 was 390 nM.

`CCOc1cc(F)c(Nc2ccc3c(CNC)cn(S(=O)(=O)c4cccnc4)c3c2)c(F)c1` [Example 89, N-(4-ethoxy-2,6-difluorophenyl)-3-((methylamino)methyl)-1-(pyridin-3-ylsulfonyl)-1H-indol-6-amine hydrochloride] was tested. Which IC50 did it give?
Its IC50 is 870 nM.

With `CNCc1cn(S(=O)(=O)c2cccnc2)c2cc(Nc3c(C)cc(C)cc3C)ccc12` [Example 80, N-mesityl-3-((methylamino)methyl)-1-(pyridin-3-ylsulfonyl)-1H-indol-6-amine hydrochloride] as the molecule, how does the IC50 read?
Its IC50 is 170 nM.

`CNCc1cn(S(=O)(=O)c2cccc(OC(F)(F)F)c2)c2cc(Nc3ccc(OC(F)(F)F)cc3C)ccc12` [Example 200, N-(2-methyl-4-(trifluoromethoxy)phenyl)-3-((methylamino)methyl)-1-((3-(trifluoromethoxy)phenyl)sulfonyl)-1H-indol-6-amine hydrochloride] was tested. Which IC50 did it give?
Its IC50 is 900 nM.

`CNCc1cn(S(=O)(=O)c2cccc(OC(F)F)c2)c2cc(-c3cccnc3C(F)(F)F)ccc12` [Example 261, 1-(1-((3-(difluoromethoxy)phenyl)sulfonyl)-6-(2-(trifluoromethyl)pyridin-3-yl)-1H-indol-3-yl)-N-methylmethanamine hydrochloride] was tested. Which IC50 did it give?
The IC50 was 9240 nM.

How did the IC50 turn out when `CNCc1cn(S(=O)(=O)c2cccnc2)c2cc(Nc3ccc(Cl)cc3)ccc12` [Example 11, N-(4-chlorophenyl)-3-((methylamino)methyl)-1-(pyridin-3-ylsulfonyl)-1H-indol-6-amine hydrochloride] was run?
The IC50 was 1020 nM.

How did the IC50 turn out when `CNCc1cn(S(=O)(=O)c2cccnc2)c2cc(Oc3cc(Cl)ncn3)ccc12` [Example 314, 1-(6-((6-chloropyrimidin-4-yl)oxy)-1-(pyridin-3-ylsulfonyl)-1H-indol-3-yl)-N-methylmethanamine hydrochloride] was run?
The IC50 was 19400 nM.

How did the IC50 turn out when `CNCc1cn(S(=O)(=O)c2cccnc2)c2cc(Nc3ccncc3C(F)(F)F)ccc12` [Example 129, 3-((methylamino)methyl)-1-(pyridin-3-ylsulfonyl)-N-(3-(trifluoromethyl)pyridin-4-yl)-1H-indol-6-amine hydrochloride] was run?
Its IC50 is 10200 nM.

Which IC50 does the source give for `CNCc1cn(S(=O)(=O)c2cc(C)cc(C)c2)c2cc(Nc3ccc(C)cc3F)ccc12` [Example 239, 1-((3,5-dimethylphenyl)sulfonyl)-N-(2-fluoro-4-methylphenyl)-3-((methylamino)methyl)-1H-indol-6-amine hydrochloride] here?
The IC50 was 1750 nM.

With `CNCc1cn(S(=O)(=O)c2cccnc2)c2cc(Cc3ccccc3)ccc12` [Example 268, 1-(6-benzyl-(pyridin-3-ylsulfonyl)-1H-indol-3-yl)-N-methylmethanamine hydrochloride] as the molecule, how does the IC50 read?
The IC50 was 760 nM.

`CNCc1cn(S(=O)(=O)c2cccc(F)c2)c2cc(Nc3ccc(OC(F)(F)F)cc3C)ccc12` [Example 140, 1-((3-fluorophenyl)sulfonyl)-N-(2-methyl-4-(trifluoromethoxy)phenyl)-3-((methylamino)methyl)-1H-indol-6-amine hydrochloride] was tested. Which IC50 did it give?
Its IC50 is 190 nM.

With `Cc1ccc(Nc2ccc3c(C(=O)N(C)C)cn(S(=O)(=O)c4cccnc4)c3c2)c(F)c1F` [Example 329, 6-((2,3-difluoro-4-methylphenyl)amino)-N,N-dimethyl-1-(pyridin-3-ylsulfonyl)-1H-indol-3-carboxamide] as the molecule, how does the IC50 read?
Its IC50 is 42000 nM.

With `CNCc1cn(S(=O)(=O)c2ccc(OC(F)F)cc2)c2cc(Cc3ccc(C)cc3Cl)ccc12` [Example 308, 1-(6-(2-chloro-4-methylbenzyl)-1-((4-(difluoromethoxy)phenyl)sulfonyl)-1H-indol-3-yl)-N-methylmethanamine] as the molecule, how does the IC50 read?
The IC50 was 1340 nM.

`CNCc1cn(S(=O)(=O)c2cccnc2)c2cc(Nc3ccnc(OC)c3Cl)ccc12` [Example 130, N-(3-chloro-2-methoxypyridin-4-yl)-3-((methylamino)methyl)-1-(pyridin-3-ylsulfonyl)-1H-indol-6-amine hydrochloride] was tested. Which IC50 did it give?
Its IC50 is 20000 nM.

`Cc1ccc(Nc2ccc3c(C(=O)N(C)C)cn(S(=O)(=O)c4cccnc4)c3c2)c(Cl)n1` [Example 330, 6-((2-chloro-6-methylpyridin-3-yl)amino)-N,N-dimethyl-1-(pyridin-3-ylsulfonyl)-1H-indol-3-carboxamide] was tested. Which IC50 did it give?
The IC50 was 22000 nM.

How did the IC50 turn out when `CNCc1cn(S(=O)(=O)c2cccc(OC)c2)c2cc(Nc3ccc(OC(F)(F)F)cc3C)ccc12` [Example 168, 1-((3-methoxyphenyl)sulfonyl)-N-(2-methyl-4-(trifluoromethoxy)phenyl)-3-((methylamino)methyl)-1H-indol-6-amine hydrochloride] was run?
The IC50 was 790 nM.

Which IC50 does the source give for `CNCc1cn(S(=O)(=O)c2cccc(OC(F)F)c2)c2cc(Nc3ccc(C)c(F)c3F)ccc12` [Example 180, N-(2,3-difluoro-4-methylphenyl)-1-((3-(difluoromethoxy)phenyl)sulfonyl)-3-((methylamino)methyl)-1H-indol-6-amine hydrochloride] here?
Its IC50 is 270 nM.

`CNCc1cn(S(=O)(=O)c2cccc(Cl)c2)c2cc(Nc3ccc(OC(F)(F)F)cc3C)ccc12` [Example 154, 1-((3-chlorophenyl)sulfonyl)-N-(2-methyl-4-(trifluoromethoxy)phenyl)-3-((methylamino)methyl)-1H-indol-6-amine hydrochloride] was tested. Which IC50 did it give?
The IC50 was 480 nM.

For `CNCc1cn(S(=O)(=O)c2cccnc2)c2cc(Nc3c(F)cccc3F)ccc12` [Example 60, N-(2,6-difluorophenyl)-3-((methylamino)methyl)-1-(pyridin-3-ylsulfonyl)-1H-indol-6-amine hydrochloride], which IC50 is on record?
Its IC50 is 2460 nM.
